Ten compounds from patent US9079843B2, “23-yne-vitamin D3 derivative” (TEIJIN PHARMA LIMITED, priority 2010, dated 2015) can be followed below.

In general, EC50 refers to the concentration giving half of the maximal effect.

One data set deals with T1, human VDR (Homo sapiens, UniProt P11473).
T1 construct: expressed in transfected cells; host or cells: HOS cells (human osteoblast, ATCC)
T1 sequence (P11473 1-427): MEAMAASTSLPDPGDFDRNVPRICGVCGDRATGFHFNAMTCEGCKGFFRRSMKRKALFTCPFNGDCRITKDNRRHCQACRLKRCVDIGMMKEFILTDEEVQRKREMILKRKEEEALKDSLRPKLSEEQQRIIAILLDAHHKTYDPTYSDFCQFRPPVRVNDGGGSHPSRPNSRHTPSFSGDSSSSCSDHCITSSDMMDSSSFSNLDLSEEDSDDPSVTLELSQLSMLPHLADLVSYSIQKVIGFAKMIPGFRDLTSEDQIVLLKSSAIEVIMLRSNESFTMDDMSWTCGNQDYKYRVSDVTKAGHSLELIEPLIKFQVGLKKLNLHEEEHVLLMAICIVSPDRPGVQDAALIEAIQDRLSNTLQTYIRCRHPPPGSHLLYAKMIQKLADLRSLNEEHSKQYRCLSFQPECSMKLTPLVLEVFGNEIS
T1 sequence (P19793 1-462 partner): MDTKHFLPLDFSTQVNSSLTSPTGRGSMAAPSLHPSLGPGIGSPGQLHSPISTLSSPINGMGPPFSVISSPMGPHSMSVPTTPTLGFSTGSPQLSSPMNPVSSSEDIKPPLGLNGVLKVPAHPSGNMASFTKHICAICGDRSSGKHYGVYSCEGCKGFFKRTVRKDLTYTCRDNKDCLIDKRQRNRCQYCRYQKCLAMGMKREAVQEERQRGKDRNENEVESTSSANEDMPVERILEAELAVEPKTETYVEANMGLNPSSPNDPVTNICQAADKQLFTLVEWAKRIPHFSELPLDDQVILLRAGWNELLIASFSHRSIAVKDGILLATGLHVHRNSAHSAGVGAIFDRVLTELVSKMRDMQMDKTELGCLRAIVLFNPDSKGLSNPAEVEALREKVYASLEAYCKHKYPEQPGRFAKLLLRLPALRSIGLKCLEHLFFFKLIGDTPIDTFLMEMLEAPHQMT
Briefly: VDR transcriptional activity in human osteoblast (HOS cells), osteocalcin promoter luciferase reporter. The format is cell-based. To be noted: 24 hours incubation. The text has this:
(1) A reporter vector was constructed by inserting the sequence of the promoter region of human ostocalcin gene into the upstream of luciferase gene using a pGL3 vector (Promega Corporation), wherein the promoter region of the human ostocalcin gene was cloned using cDNA acquired from HOS cells (purchased from ATCC) by a method known in the literature (Ozono et al., The Journal of Biological Chemistry, 265, 21881-21888 (1990)). The expression vector was constructed by inserting a DNA sequence, which encodes human VDR and human RXR, into a pcDNA3 vector (Invitrogen Corporation). The HOS cells were incubated in a DMEM medium containing 10% FBS under conditions of 37° C. and 5% CO2, and subcultured every 2 or 3 days.
(2) The cells which had been subcultured were recovered by centrifugation and were suspended in serum- and phenol red-free DMEM medium in a density of 4×10^5 cells/mL. This was seeded on a 96-well plate in an amount of 0.1 mL/well. To this system, various vectors described in (1) were added in an amount of 0.05 mL per well using Lipofectamine 2000 (Invitrogen Corporation). After incubation at 37° C. for 3 hours, 2 μl each of ethanol solutions of the test compounds of various concentrations or ethanol as a control was added to each well. After incubation at 37° C. for 24 hours, the medium was removed, the cells were washed once with PBS(−), and thereafter luciferase activity was measured by using a luminometer (Berthold Technologies GmbH & Co. KG) using Dual-Glo Luciferase Assay Kit (Promega Corporation).
(Reporter assays use an easily measured gene product as a stand-in for the process of interest.)

A further data set concerns the target T2, VDR (Homo sapiens, UniProt P11473).
T2 sequence (P11473 1-427): T1 sequence (P11473 1-427)
Nature of the data set: Evaluation of VDR affinity (PolarScreen Vitamin D Receptor Competitor Assay, fluorescence polarization). On the technique in general: In fluorescence polarisation assays a small probe gives low polarisation when free and higher when bound to something large.

The subject of data set [1] is osteoporosis model (oophorectomy) rats. Briefly: Bone mineral density-enhancing effect in osteoporosis model (oophorectomy) rats. In kind it is in vivo, rat. Particulars: OVX rats, 5 times a week for 4 weeks, fourth and fifth lumbar vertebrae.
Experimental: (§1) After 24 hours from the final administration, blood was drawn under ether anesthesia and the rats were put down. Under anesthesia, bone mineral density of the fourth and fifth lumbar vertebrae was measured by using a dual-energy X-ray bone mineral analyzer (QDR-2000; Hologic, Inc.). For comparison, a sham surgery (sham) group (abdominal operation is performed but the ovary is not removed; the test compounds are not administered) and an oophorectomy (OVX) group (subjected to oophorectomy but the test compounds are not administered) were also subjected to measurement of the bone mineral density of lumbar vertebrae at the time of dissection. Further, measurement of calcium concentration in the serum of each group was also performed.
Data set [2] can be described thus: Serum calcium concentration in osteoporosis model (oophorectomy) rats. Particulars: OVX rats; for Serum calcium value: 5 times a week for 4 weeks, 24 hours after final administration.
Experimental: as §1

Take `C=C1C(=CC=C2CCCC3(C)C2CCC3C(C)CC#CC(C)(C)O)CC(O)C(OCCC(=O)O)C1O` [Compound C-1, (5Z,7E)-(1R,2S,3R,20R)-2-(2-carboxyethoxy)-23-yne-9,10-seco-5,7,10(19)-cholestatriene-1,3,25-triol]: the EC50 on human VDR was no more than 0.2 nM. Besides, on VDR, the “VDR affinity (in words)” value was “very strong VDR affinity”. The Bone mineral density in data set [1] (dose 4 ng/kg) came to 0.2223 ± 0.0118 g/mL; in data set [1] (dose 10 ng/kg) it was 0.2400 ± 0.0065 g/mL.
On to `C=C1C(=CC=C2CCCC3(C)C2CCC3C(C)CC#CC(C)(C)O)CC(O)C(CCCC(=O)O)C1O` [Compound D-1], for which the EC50 on human VDR is no more than 0.02 nM. For the same compound, the “VDR affinity (in words)” value at VDR is on record as “very strong VDR affinity”. Further, the Bone mineral density in data set [1] (dose 6 ng/kg) worked out at 0.2211 ± 0.0175 g/mL; in data set [1] (dose 13 ng/kg), 0.2360 ± 0.0143 g/mL.
For the compound `C=C1C(=CC=C2CCCC3(C)C2CCC3C(C)CC#CC(O)(CC)CC)CC(O)C(OCCC(=O)O)C1O` [Compound F-1, (5Z,7E)-(1R,2S,3R,20R)-2-(2-carboxyethoxy)-26,27-dimethyl-23-yne-9,10-seco-5,7,10(19)-cholestatriene-1,3,25-triol], the EC50 on human VDR is no more than 0.02 nM. Moreover, the Bone mineral density in data set [1] (dose 6 ng/kg) was 0.2366 ± 0.0139 g/mL.
For the compound `C=C1/C(=C\C=C2/CCC[C@]3(C)[C@@H]([C@H](C)CC#CC(C)(C)O)CC[C@@H]23)C[C@@H](O)[C@H](OCCC(=O)OC(C)C)[C@@H]1O` [Compound C-5, (5Z,7E)-(1R,2S,3R,20R)-2-(2-(1-methyl)ethoxycarbonylethoxy)-23-yne-9,10-seco-5,7,10(19)-cholestatriene-1,3,25-triol], the Bone mineral density came out at 0.2316 ± 0.0134 g/mL in data set [1] (dose 17 ng/kg) and 0.2354 ± 0.0126 g/mL in data set [1] (dose 50 ng/kg). The Serum calcium value in data set [2] (dose 17 ng/kg) came out at 9.60 ± 0.15 mg/dL; in data set [2] (dose 50 ng/kg), 10.10 ± 0.21 mg/dL.
`C=C1/C(=C\C=C2/CCC[C@]3(C)[C@@H]([C@H](C)CC#CC(C)(C)O)CC[C@@H]23)C[C@@H](O)[C@H](OCCC(=O)OCOC(=O)C(C)(C)C)[C@@H]1O` [Compound C-7, (5Z,7E)-(1R,2S,3R,20R)-2-((t-butylcarbonyloxy)methoxycarbonylethoxy)-23-yne-9,10-seco-5,7,10(19)-cholestatriene-1,3,25-triol]: the Bone mineral density in data set [1] (dose 6 ng/kg) came to 0.2322 ± 0.0092 g/mL; in data set [1] (dose 13 ng/kg), 0.2548 ± 0.0143 g/mL. The Serum calcium value in data set [2] (dose 6 ng/kg) worked out at 9.83 ± 0.22 mg/dL; in data set [2] (dose 13 ng/kg), 10.07 ± 0.22 mg/dL.
Turning to `C=C1C(=CC=C2CCCC3(C)C2CCC3C(C)CC#CC(C)(C)O)CC(O)C(OCCC(=O)OC)C1O` [Compound C-2, (5Z,7E)-(1R,2S,3R,20R)-2-(2-methoxycarbonylethoxy)-23-yne-9,10-seco-5,7,10(19)-cholestatriene-1,3,25-triol], at human VDR, the concentration for a half-maximal effect (EC50) is no more than 0.2 nM. Also, the Bone mineral density in data set [1] (dose 6 ng/kg) worked out at 0.2196 ± 0.0177 g/mL; in data set [1] (dose 13 ng/kg), 0.2308 ± 0.0081 g/mL.
On to `C=C1C(=CC=C2CCCC3(C)C2CCC3C(C)CC#CC(C)(C)O)CC(O)C(CC(C)C(=O)OC(C)(C)C)C1O` [Compound D-6, (5Z,7E)-(1S,2S,3R,20R)-2-(2-(1,1-dimethyl)ethoxycarbonylpropyl)-23-yne-9,10-seco-5,7,10(19)-cholestatriene-1,3,25-triol], for which the Bone mineral density in data set [1] (dose 50 ng/kg) came to 0.2365 ± 0.0204 g/mL. The Serum calcium value in data set [2] (dose 50 ng/kg) was 9.76 ± 0.29 mg/dL.
In the case of `C=C1/C(=C\C=C2/CCC[C@]3(C)[C@@H]([C@H](C)CCCC(C)(C)O)CC[C@@H]23)C[C@@H](O)[C@H](OCCCO)[C@@H]1O` [2α-(3-hydroxypropyl)oxy-1α,25-dihydroxyvitamin D3, reference compound], the figures for the Bone mineral density in data set [1] (dose 10 ng/kg) and in data set [1] (dose 25 ng/kg) were 0.2269 ± 0.0161 g/mL and 0.2473 ± 0.0157 g/mL, respectively. The values for the Serum calcium value in data set [2] (dose 10 ng/kg) and in data set [2] (dose 25 ng/kg) were 10.30 ± 0.37 mg/dL and 11.20 ± 0.20 mg/dL, respectively. In addition, the “increase in the serum calcium value” in data set [2] (dose 25 ng/kg necessary for bone mineral density equal to or greater than sham group) is reported as no less than 1 mg/dL.
For the compound `C=C1C(=CC=C2CCCC3(C)C2CCC3C(C)CC#CC2(O)CCCC2)CC(O)C(OCCC(=O)O)C1O` [Compound F-2, (5Z,7E)-(1R,2S,3R,20R)-2-(2-carboxyethoxy)-26,27-nor-25-cyclopentyl-23-yne-9,10-seco-5,7,10(19)-cholestatriene-1,3,25-triol], the 50% effective concentration (EC50) on human VDR was no more than 0.02 nM.
On the same count and under the same terms, then `C=C1/C(=C\C=C2/CCC[C@@]3(C)C2CC[C@@H]3[C@H](C)CC#CC(C)(C)O)C[C@@H](O)[C@H](OCC2(C(=O)O)CC2)[C@@H]1O` (stereo partly drawn) [Compound E-1, (5Z,7E)-(1R,2S,3R,20R)-2-((2-carboxy-2,2-ethano)ethoxy)-23-yne-9,10-seco-5,7,10 (19)-cholestatriene-1,3,25-triol], with no more than 0.2 nM.
